The conditions of data set [1]: DCM.
The target in a further data set is T1, ERAP1 (Homo sapiens, UniProt Q9NZ08).
T1 construct: Purified ERAP1(37-941)-10His (ERAP1); 10His (C)
Description: ERAP1 mediated hydrolysis of an amide substrate (10-mer inhibition assay), biochemical system. The note with it: 10-mer substrate, incubated at 23° C. for 1 h, excitation 279 nm and emission 355 nm; read-out: IC50 vs Decapeptide WRVYEKC(Dnp)ALK-acid (where Dnp is Dinitrophenyl maleimide) (10-mer). The gist of the method:
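Purified ERAP1(37-941)-10His in 25 mM Bis-tris propane, 0.05% HPMC, pH 7.75 was mixed with compound, then 240 μM L-AMC or 100 μM 10-mer WRVYEKC(Dnp)ALK (concentrations before mixing) was added, 1 h at 23 °C. 10-mer cleavage read as tryptophan fluorescence (ex 279/em 355 nm); L-AMC at ex 365/em 442 nm. IC50 from 4-parameter fit.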

Where two headings read alike, the source gives them in different places. A value given as a limit tells only on which side of the number the result lay.

For orientation: IC50 means the concentration that inhibits the measured activity by half.

T1 sequence (Q9NZ08 37-941): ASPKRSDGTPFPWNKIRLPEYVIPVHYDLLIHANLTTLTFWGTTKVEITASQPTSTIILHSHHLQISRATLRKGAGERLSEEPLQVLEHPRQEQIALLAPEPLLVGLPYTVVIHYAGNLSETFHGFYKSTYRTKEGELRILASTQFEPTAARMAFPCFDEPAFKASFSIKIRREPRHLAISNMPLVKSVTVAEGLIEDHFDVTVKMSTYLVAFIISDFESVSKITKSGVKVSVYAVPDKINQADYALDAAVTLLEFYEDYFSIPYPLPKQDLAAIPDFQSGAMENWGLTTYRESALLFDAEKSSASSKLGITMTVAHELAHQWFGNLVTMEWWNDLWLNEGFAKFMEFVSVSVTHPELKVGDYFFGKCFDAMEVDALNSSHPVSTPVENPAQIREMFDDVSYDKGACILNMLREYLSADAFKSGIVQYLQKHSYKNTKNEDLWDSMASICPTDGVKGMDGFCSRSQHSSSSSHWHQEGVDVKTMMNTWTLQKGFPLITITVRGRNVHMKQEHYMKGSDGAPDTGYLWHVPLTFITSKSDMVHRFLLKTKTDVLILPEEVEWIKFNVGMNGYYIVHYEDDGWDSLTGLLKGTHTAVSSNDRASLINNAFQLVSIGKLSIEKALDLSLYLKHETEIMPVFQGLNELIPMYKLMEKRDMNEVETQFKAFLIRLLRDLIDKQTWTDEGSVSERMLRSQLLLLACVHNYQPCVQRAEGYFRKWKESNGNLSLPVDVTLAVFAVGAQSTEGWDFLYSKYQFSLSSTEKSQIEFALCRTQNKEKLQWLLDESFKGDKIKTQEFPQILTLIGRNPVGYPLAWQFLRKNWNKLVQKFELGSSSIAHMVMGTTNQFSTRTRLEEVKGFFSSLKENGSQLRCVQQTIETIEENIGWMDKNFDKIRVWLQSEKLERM

Turning to `COC(=O)c1ccc2c(c1)S(=O)(=O)Nc1cc(C#N)c(Cl)cc1N1CCCCC1C=CCO2` (stereo not drawn), the ring closure, isolated yield in data set [1] (from C=CCOc1ccc(C(=O)OC)cc1S(=O)(=O)Nc1cc(C#N)c(Cl)cc1N1CCCCC1C=C, rcm bond, 12-membered ring, Hoveyda-Grubbs II (2 x 5 mol%), 56.3 mM, 88.0 h) was determined as 25%.
Compound `COC(=O)c1ccc2c(c1)S(=O)(=O)Nc1cc(C#N)c(Cl)cc1N1CCCC[C@@H]1CCCO2` had a ring closure, isolated yield in data set [1] (from COC(=O)c1ccc(O)c(S(=O)(=O)Nc2cc(C#N)c(Cl)cc2N2CCCC[C@@H]2CCCO)c1, ether bond, 12-membered ring, PPh3/DIAD, 43.7 mM, 1.0 h) of 22%.
The compound `COC(=O)c1ccc2c(c1)S(=O)(=O)Nc1cc(C#N)c(Cl)cc1N1CCCC[C@H]1CC=CCO2` came in with a ring closure, isolated yield in data set [1] (from C=CCOc1ccc(C(=O)OC)cc1S(=O)(=O)Nc1cc(C#N)c(Cl)cc1N1CCCC[C@H]1CC=C, rcm bond, 13-membered ring, Hoveyda-Grubbs II, 20.1 mM, 16.0 h) of 81%.
`COC(=O)c1ccc2c(c1)S(=O)(=O)Nc1cc(C#N)c(Cl)cc1N1CCCC[C@H]1CCCO2` came in with a ring closure, isolated yield in data set [1] (from COC(=O)c1ccc(O)c(S(=O)(=O)Nc2cc(C#N)c(Cl)cc2N2CCCC[C@H]2CCCO)c1, ether bond, 12-membered ring, PPh3/DIAD, 47.1 mM, 1.0 h) of 23%.
In data set [1] (from COC(=O)c1ccc(O)c(S(=O)(=O)Nc2cc(C#N)c(F)cc2N2CCCC[C@H]2CCCCO)c1, ether bond, 13-membered ring, PPh3/DIAD, 31.7 mM, 1.0 h), `COC(=O)c1ccc2c(c1)S(=O)(=O)Nc1cc(C#N)c(F)cc1N1CCCC[C@H]1CCCCO2` showed a ring closure, isolated yield of 88%.
As to `N#Cc1cc2c(cc1Cl)N1CCCC[C@H]1CCCCCc1ccc(C(=O)O)cc1S(=O)(=O)N2` [Example 72, (R)-3-chloro-2-cyano-6,7,8,9,9a,10,11,12,13,14-decahydro-20H-dibenzo[c,l]pyrido[1,2-e][1]thia[2,5]diazacyclotridecine-17-carboxylic acid 19,19-dioxide], the IC50 at ERAP1 was under 250 nM.
As to `N#Cc1cc2c(cc1Cl)N1CCCC[C@H]1COCCCc1ccc(C(=O)O)cc1S(=O)(=O)N2` [Example 73, (S)-3-chloro-2-cyano-6,7,8,9,9a,10,13,14-octahydro-12H, 20H-dibenzo[e,i]pyrido[2,1-c][1]oxa[8]thia[4,7]diazacyclotridecine-17-carboxylic acid 19,19-dioxide], the IC50 on ERAP1 is under 250 nM.
In data set [1] (rcm bond, 13-membered ring, Hoveyda-Grubbs II (two portions), 42.3 mM, 35.0 °C), “(E)-20-tert-butyl 17-methyl 2-(trifluoromethyl)-6,7,8,9,9a,10-hexahydrodibenzo[b,f]pyrido[1,2-h][1,4,5,8]oxathiadiazacyclotridecine-17,20(13H)-dicarboxylate 19,19-dioxide” showed a ring closure, isolated yield of 33%.
In turn, “methyl (E)-2-cyano-7,8,9,9a,10,13-hexahydro-6H, 20H-dibenzo[b,f]pyrido[1,2-h][1]oxa[4]thia[5,8]diazacyclotridecine-17-carboxylate 19,19-dioxide” had a ring closure, isolated yield in data set [1] (rcm bond, 13-membered ring, Hoveyda-Grubbs II (5 mol%), 50.2 mM) of 66%.

(Values after patent publication US20240300976A1, “COMPOUNDS AS MODULATORS OF ENDOPLASMIC RETICULUM AMINOPEPTIDASE 1 (ERAP1)” (GREY WOLF THERAPEUTICS LIMITED, priority 2020, published 2024).)
